Values quoted from earlier work, collected in patent USRE37727E1, “Method for treating nerve injury pain associated with shingles” (priority 1989, dated 2002).

Settings: venous; reported range

Q: For `CCN(CC)CC(=O)Nc1c(C)cccc1C` [lidocaine], which “minimum concentrations of lidocaine for anti-arrhythmic effects” value is on record?
A: 0.6 to 2.0 µg/mL
